What was measured:
P. falciparum parasites = experiment: Parasite proliferation, [^3H]hypoxanthine incorporation assay, 48 hr; assay type: cell-based; conditions: Plasmodium falciparum; mean ± SEM, number of independent experiments in parentheses; read-out: IC50 for inhibition of parasite proliferation
Experimental: Parasite growth assays were performed in 96-well plates over 48 hr (commencing at the ring stage) using a standard [^3H]hypoxanthine incorporation assay ([Desjardins et al., 1979]).
Dose-response curves were obtained using the expression y = y^min + y^max/(1 + [C/IC50]^b), where y is the parameter being measured (parasite proliferation, Na^+ influx, or ATPase activity), y^min is the minimum value of y, y^max is the maximum value of y, C is the concentration of the moiety that was varied in the experiment, IC50 is the concentration at which y was reduced to 50% of y^max, and b is a fitted constant.

[1] = system: P. falciparum trophozoites; experiment: Recovery of [Na^+]i from an imposed intracellular Na^+ load (K^+ removal and restoration); assay type: cell-based, Plasmodium falciparum; conditions: added with 10 mM KCl
Experimental: The mechanism responsible for the increase in [Na^+]i seen upon removal of extracellular K^+ was not investigated further here. However, the phenomenon does provide a useful means of imposing an intracellular Na^+ load on the parasite and of testing the effect of inhibitors on the net efflux of Na^+ from the Na^+-loaded parasite.
(§1) The [Na^+]i of saponin-isolated parasites was measured at 37°C using the Na^+-sensitive dye SBFI (Molecular Probes, Invitrogen) in conjunction with a PerkinElmer LS 50B Fluorescence Spectrometer fitted with a Dual Excitation Fast Filter. Saponin-isolated parasites were loaded with SBFI by suspension (at 1.40–1.80 × 10^8 cells/mL) for 20 min at 37°C in bicarbonate-free RPMI1640 supplemented with 20 mM D-glucose, 0.2 mM hypoxanthine, 25 mM HEPES, and 25 mg/L gentamycin sulfate (pH 7.10), to which SBFI-acetoxymethyl ester (5.5 μM) and Pluronic F-127 (0.01% w/v) were added. The dye-loaded cells were washed twice (12,000 × g, 0.5 min) in bicarbonate-free RPMI then incubated for a further 20 min at 37°C to allow for complete de-esterification of the dye before being resuspended at a final cell concentration of 1.5–2.5 × 10^7 cells/mL in standard saline. The dye-loaded cells were excited at 340 nm and 380 nm with fluorescence recorded at 490 nm. Calibration of the relationship between the 340/380 nm fluorescence ratio and [Na^+]i (see Figures S1A–S1C) was carried out as described previously ([Diarra et al., 2001]; [Harootunian et al., 1989]). Several inhibitors used in this study caused inner filter effects ([Gu and Kenny, 2009]; [Srinivas and Mutharasan, 1987]); in these cases calibration curves were generated with the inhibitors present.
The rate of efflux of Na^+ from the cells, following an imposed intracellular Na^+ load, was estimated by fitting the following function to the [Na^+]i traces: [Na^+]i = Δ[Na^+]i^max × e^-at + [Na^+]i^final, where Δ[Na^+]i^max is the increase in [Na^+]i above the normal resting value (following the imposition of an intracellular Na^+-load), t is the time after the commencement of efflux (on addition of extracellular K^+), a is a fitted constant, and [Na^+]i^final is the final value of [Na^+]i. The initial Na^+ efflux rate (at t = 0) is a × Δ[Na^+]i^max, and the half-time to complete recovery (t1/2) is ln(0.5)/-a.

[2] = system: P. falciparum trophozoites; experiment: Cytosolic [Ca^2+]i in fura-2-loaded saponin-isolated parasites; assay type: cell-based, Plasmodium falciparum; conditions: 50 nM; medium containing 1 μM Ca^2+
Experimental: [Ca^2+]i was measured with the Ca^2+-sensitive indicator fura-2 (Molecular Probes, Invitrogen) using a loading protocol identical to that described for SBFI. Calibration was performed as described previously ([Alleva and Kirk, 2001]).

[3] = system: P. falciparum Dd2^attB CAM I398F/P990R (mutant PfATP4 transfectant); experiment: Disruption of [Na^+]i regulation, SBFI-loaded trophozoites, Dd2^attB CAM I398F/P990R; assay type: cell-based; conditions: Plasmodium falciparum, from fitted curves, read-out: IC50 for disruption of Na^+ regulation by NITD246
Experimental: as §1, with “present. […]” for “present.”

C[C@H]1Cc2c([nH]c3cc(F)c(F)cc23)[C@@]2(N1)C(=O)Nc1ccc(Cl)cc12 [NITD246]
IC50 (P. falciparum parasites): 0.12 ± 0.02 nM | Effect on recovery of [Na^+]i after Na^+ load ([1]; 1 nM): [Na^+]i remaining at the level reached at the point of addition of extracellular K^+ | Effect on recovery of [Na^+]i after Na^+ load ([1]; 5 nM): prolonged time-dependent increase in [Na^+]i | Effect on [Ca^2+]i [2]: no effect | IC50 [3]: 3.9 ± 1.7 nM
